Experimental findings from patent US7643943B2, “Methods for monitoring drug activities in vivo” (Wyeth LLC, priority 2003, dated 2010) are described below.

The nature of the data set: Pharmacodynamic correlation of drug exposure metrics to severity and duration of adverse events. Format: in vivo, human. How it is done: For the cumulative dose drug exposure, cumulative AUCsum was determined. Each patients' specific dosing history while on trial medication was determined and used to derive respective AUCs experienced by each patient for the duration of time from start of treatment to time of highest severity adverse event. This test included all the data, irrespective of AE severity, and was analyzed using the asymptotic Mantel-Haenszel Test for Ordinal Association. A severity score of “1” indicating the lowest severity and “3” indicating the highest severity was used. […] Pharmacokinetic parameters were grouped into low, medium and high categories with an equal number of patients in each category. […] Estimation of cumulative exposure was determined for each patient as described above. Duration of an AE was determined by calculating the time interval for which a given patient experienced a given AE. […] The correlations between AE duration and the continuous pharmacokinetic variables were calculated using Spearman rank correlation test (SAS Institute Inc., SAS® […] REFERENCE, Version 8, Cary, N C: SAS Institute Inc., 1999). […] Results of the pharmacodynamic analysis using AUCsum (discrete predictor), cumulative AUCsum (cumulative predictor variable), Ceoi (peak exposure predictor) are shown in Table 12 as derived from 49 differing adverse events recorded for those patients included in the population analysis. […] Cumulative AUCsum refers to aggregate AUCsum based on individual patient dosing history. Ceoi is the CCI-779 concentration observed at end of infusion.

In the case of `CO[C@H]1C[C@@H]2CC[C@@H](C)[C@@](O)(O2)C(=O)C(=O)N2CCCC[C@H]2C(=O)O[C@H]([C@H](C)C[C@@H]2CC[C@@H](OC(=O)C(C)(CO)CO)[C@H](OC)C2)CC(=O)[C@H](C)/C=C(\C)[C@@H](O)[C@@H](OC)C(=O)[C@H](C)C[C@H](C)/C=C/C=C/C=C/1C` [CCI-779], the “Spearman correlation to Ceoi: duration of Pain abdomen” value (N patients 13, P-value 0.01) is recorded as 0.01 (0.873). For the setting “N patients 13, P-value 0.013, Ceoi = CCI-779 concentration at end of infusion”, the “Correlation to Ceoi: severity of Myalgia” value is listed as 0.013 (0.414). The “Correlation to Ceoi: severity of Fever” value (N patients 17, P-value 0.022) is given as 0.022 (0.402). In addition, the “Spearman correlation to Ceoi: duration of Fever” value (N patients 17, P-value 0.04) is reported as 0.04 (−0.626). The “Spearman correlation to Ceoi: duration of Anorexia” value (N patients 22, P-value 0.015) is given as 0.015 (0.597).
